# Laboratory results published in patent publication US20260240202A1, “MINERAL PROTEINATES FOR USE IN ANIMAL FEEDS, AND METHODS OF MAKING THEREOF” (Cargill, Incorporated, priority 2023, published 2026).
# Marks after values point to notes of the source that are not given here.
# Assay: Chick Zn bioavailability trial: performance and tibia bone measures
# Type: in vivo, New Hampshire×Columbian male and female chicks
# Details: for Dry Bone Wt (mg/tibia) / Bone Ash (%) / Bone Ash Wt (mg/tibia) / Tibia Ash Zn Conc. (μg/g of ash): 14 d; for Dry Bone Wt (mg/tibia): right tibia
# Method: New Hampshire×Columbian male and female chicks from the University of Illinois Poultry Field Laboratory were fed a nutritionally complete corn-soybean meal diet for the first 3 days post-hatching. The chicks were then switched to a Zn-deficient soy concentrate basal diet and fed this diet until 1600 h on D 7 post-hatching. After being subjected to overnight feed withdrawal, chicks were weighed, wing banded and allotted to pens so that each pen has a similar initial weight. Treatment additions were made at the expense of cornstarch. The trial diet can be seen in Table 6.
# Five replicate groups of four chicks were fed one of 10 diets for 14 d (Day 8-22 post-hatch). Chicks were maintained in heated stainless-steel batteries and exposed to constant fluorescent light. The dietary treatments are listed below: • 1. Basal soy concentrate diet-Zn deficient (13-14 mg/kg Zn) • 2. As 1+3 mg/kg Zn from feed grade ZnSO4·7H2O • 3. As 1+6 mg/kg Zn from feed grade ZnSO4·7H2O • 4. As 1+9 mg/kg Zn from feed grade ZnSO4·7H2O • 5. As 1+3 mg/kg Zn from Organic Zn prototype MinPro-E75 • 6. As 1+6 mg/kg Zn from Organic Zn prototype MinPro-E75 • 7. As 1+9 mg/kg Zn from Organic Zn prototype MinPro-E75 • 8. As 1+3 mg/kg Zn from Organic Zn prototype MinPro-HSW • 9. As 1+6 mg/kg Zn from Organic Zn prototype MinPro-HSW • 10. As 1+9 mg/kg Zn from Organic Zn prototype MinPro-HSW
# Chicks were weighed at the beginning and the end of the trial and weight gain calculated by subtracting the starting weight from the ending weight. Feed intakes were calculated via subtracting the feed refusals from the feed provided, with Zn intakes calculated based on Zn concentration in the diet and total feed consumed. Feed conversions were determined by using the feed consumed divided by weight gained.
# Upon termination of the experiment, chicks and feeders were weighed and chicks were euthanized with CO2 gas. The right tibia from each chick was removed and pooled by replicate pen. The tibia was then autoclaved and cleaned to remove all adhering tissue, dried at 110° C. for 24 h, and then dry ashed in a muffle furnace. The ash was analyzed for Zn at the University of Missouri. Bioavailability of Zn was then determined by the slope-ratio method using multiple regression analysis. Weight gain, tibia Zn concentration and total tibia Zn were regressed on supplemental Zn intake from the Zn sources and the bioavailability of the Zn in the Zn-protein sources was calculated relative to the Zn in ZnSO4·7H2O.
smiles,measurement,setting,value
"O.O.O.O.O.O.O.O=S(=O)([O-])[O-].[Zn+2] [ZnSO4, ZnSO4·7H2O]",Dry Bone Wt (mg/tibia),3 mg/kg supplemental Zn in Zn-deficient basal diet,1012^e mg/tibia
same,Bone Ash (%),3 mg/kg supplemental Zn,42.8^bcd %
same,Bone Ash Wt (mg/tibia),3 mg/kg supplemental Zn,433^de mg/tibia
same,Tibia Ash Zn Conc. (μg/g of ash),3 mg/kg supplemental Zn,79.16^ef μg/g of ash
same,Dry Bone Wt (mg/tibia),6 mg/kg supplemental Zn in Zn-deficient basal diet,1104^bdc mg/tibia
same,Bone Ash (%),6 mg/kg supplemental Zn,43.4^abcd %
same,Bone Ash Wt (mg/tibia),6 mg/kg supplemental Zn,478^bc mg/tibia
same,Tibia Ash Zn Conc. (μg/g of ash),6 mg/kg supplemental Zn,88.98^cd μg/g of ash
same,Dry Bone Wt (mg/tibia),9 mg/kg supplemental Zn in Zn-deficient basal diet,1176^ab mg/tibia
same,Bone Ash (%),9 mg/kg supplemental Zn,43.8^ab %
same,Bone Ash Wt (mg/tibia),9 mg/kg supplemental Zn,515^ab mg/tibia
same,Tibia Ash Zn Conc. (μg/g of ash),9 mg/kg supplemental Zn,101.2^ab μg/g of ash
same,Feed efficiency,Zinc inclusion at 3 mg/kg and 6 mg/kg,approximately 560 g/kg of feed consumed
